Structures can show the parent of a compound that is named as a salt. Where two headings read alike, the source gives them in different places.
Tested on: murine neural precursor cells (neurosphere cultures)
Experiment: HTS of LOPAC library against secondary neurosphere cultures, MTT proliferation assay at 3 μM, day 7 (z score, P value)
Format: cell-based, mouse
[1] = yes/no: significantly inhibited neurosphere proliferation (P<0.01) in primary screen
[2] = LOPAC primary screen, neurosphere MTT proliferation, 3 μM, day 7
[3] = yes/no: significantly inhibited neurosphere proliferation in primary screen
[4] = LOPAC library screen at 3 μM, MTT, secondary neurosphere cultures, screened in singlets
[5] = LOPAC library screen, 3 μM, MTT, secondary neurosphere cultures, day 7
[6] = yes/no: significantly inhibited neurosphere proliferation (P<0.01) in the primary screen
[7] = primary LOPAC screen, 3 μM, MTT, neurosphere proliferation
[8] = yes/no: significantly inhibited neurosphere proliferation in the primary screen
[9] = LOPAC library screen at 3 μM, secondary neurosphere cultures, MTT
[10] = LOPAC screen, neurosphere MTT proliferation, 3 μM, day 7

Cn1c(=O)c2c(nc(C=Cc3cccc(Cl)c3)n2C)n(C)c1=O [8-(3-Chlorostyryl)caffeine]
Z Score (168 h, 3 µM): −1.214
Z score (168 h, 3 µM): −1.214
Activity [1]: no

Cl.NCCNC(=O)c1ccc(Cl)cc1 [Ro 16-6491 hydrochloride]
Z Score: −2.181
Z score [2]: −2.181
Activity [3]: no

Cl.OCc1c[nH]cn1 [4-Imidazolemethanol hydrochloride]
Z Score: −2.077
Z score [2]: −2.077
Activity [1]: no

Nc1ccc2c3c(cccc13)C(=O)NC2=O [4-Amino-1,8-naphthalimide]
Z Score [4]: 1.875
Z score [2]: 1.875
Activity [3]: no

O=C(O)Cc1c[nH]c2ccc(O)cc12 [5-Hydroxyindolacetic acid]
Z Score [5]: −1.301
Z score [2]: −1.301
Activity [1]: no

CN(C)CCC(c1ccc(Br)cc1)c1ccccn1.O=C(O)/C=C\C(=O)O (stereo not drawn) [(B1)-Brompheniramine maleate]
Z Score: −3.53

N=C(N)NC(=N)Nc1ccccc1 [1-Phenylbiguanide]
Z Score (168 h, 3 µM): −2.689
Z score (168 h, 3 µM): −2.689
Activity [6]: yes

OC(CN1CCN(c2cccc(Cl)c2)CC1)C(c1ccccc1)c1ccccc1 (stereo not drawn) [BRL 15572]
Z Score: 0.3117
Z score [2]: 0.312
Activity [6]: no

CC(C)CN(C)c1nc(N)c(C(=O)N=C(N)N)nc1Cl [5-(N-Methyl-N-isobutyl)amiloride]
Z Score [4]: 1.871
Z score [7]: 1.871
Activity [8]: no

O=C(O)/C(=C/c1c(C(=O)O)[nH]c2cc(Cl)cc(Cl)c12)c1ccccc1 [MDL 105,519]
Activity: no
Z Score: 2.565
Z score: 2.565

OC[C@H]1O[C@@H](n2cnc3c(N[C@H]4CC5CCC4C5)ncnc32)[C@H](O)[C@@H]1O (stereo partly drawn) [(S)-ENBA]
Z Score: 0.2078
Z score [2]: 0.208
Activity [1]: no

CN1[C@@H]2CC[C@H]1C[C@@H](OC(c1ccccc1)c1ccccc1)C2 [Benztropine mesylate]
Z Score [5]: −3.749
Z score [2]: −3.749
Activity [6]: yes

COC(=O)[C@H]1[C@H]2C[C@H]3c4[nH]c5ccccc5c4CCN3C[C@H]2CC[C@@H]1O [Rauwolscine hydrochloride]
Z Score (168 h, 3 µM): −1.747
Z score (168 h, 3 µM): −1.747
Activity [3]: no

N[C@@H](Cc1ccc(F)cc1)C(=O)O [p-Fluoro-L-phenylalanine]
Z Score (168 h, 3 µM): −0.7023
Z score (168 h, 3 µM): −0.702
Activity [1]: no

CN1CCN(c2ccc3ccccc3n2)CC1.O=C(O)/C=C\C(=O)O.O=C(O)/C=C\C(=O)O [Quipazine, N-methyl-, dimaleate]
Z Score [9]: −0.3254
Z score [2]: −0.325
Activity [3]: no

CCOC(=O)[C@]12CC1/C(=N\O)c1ccccc1O2 (mixture of isomers) [CPCCOEt]
Z Score [9]: −0.8068
Z score [10]: −0.807

CCCCCCN(CCCCCC)C(=O)Cc1c(-c2ccc(F)cc2)[nH]c2ccccc12 [N,N-Dihexyl-2-(4-fluorophenyl)indole-3-acetamide]
Z Score (168 h, 3 µM): 1.916
Z score (168 h, 3 µM): 1.916
Activity [1]: no

COc1ccccc1N1CCN(CCCNc2cc(=O)n(C)c(=O)n2C)CC1 [Urapidil hydrochloride]
Z Score (168 h, 3 µM): 0.1572
Z score (168 h, 3 µM): 0.157
Activity [8]: no

Tyrphostin AG 808
Z Score [5]: −1.315
Z score [7]: −1.315
Activity [8]: no

O=c1[nH]c2ccccc2n1CCCN1CCC(n2c(=O)[nH]c3cc(Cl)ccc32)CC1 [Domperidone]
Activity: no
Z Score [5]: −1.525
Z score [2]: −1.525

CC(C)[N+](C)(CCOC(=O)C1c2ccccc2Oc2ccccc21)C(C)C [Propantheline bromide]
Z Score (168 h, 3 µM): −1.534
Z score (168 h, 3 µM): −1.534
Activity [3]: no

Cc1cccc(/C=C/c2ccccc2)n1 [SIB 1893]
Z Score: −0.848
Z score [2]: −0.848
Activity [3]: no

C[C@]12C=CC(=O)C=C1CC[C@@H]1C2=CC[C@]2(C)[C@@H](C(=O)CN3CCN(c4cc(N5CCCC5)nc(N5CCCC5)n4)CC3)CC[C@@H]12.O=C(O)/C=C\C(=O)O [U-74389G maleate]
Z Score [5]: −8.942
Z score [2]: −8.942
Activity [6]: yes

Oc1ccccc1O [Pyrocatechol]
Z Score: −2.053
Z score [10]: −2.053
Activity [1]: no

C[C@]12CCC(=O)C(O)=C1CC[C@@H]1[C@@H]2CC[C@]2(C)C(=O)CC[C@@H]12 [4-Androsten-4-ol-3,17-dione]
Z Score: 0.1944
Z score [7]: 0.194
Activity [8]: no

Nc1nc2ccc(OC(F)(F)F)cc2s1 [Riluzole]
Z Score [9]: −1.033
Z score [2]: −1.033

CN1C2CCC1CC(OC(c1ccccc1)c1ccc(Cl)cc1)C2.Cl (stereo not drawn)
Z Score: −9.672
Z score [2]: −9.672
Activity [6]: yes

CNC(=O)c1cc2c(cn1)[nH]c1ccccc12 [N-Methyl-beta-carboline-3-carboxamide]
Z Score (168 h, 3 µM): 0.6988
Z score (168 h, 3 µM): 0.699
Activity [1]: no

O=C1c2c(O)cc(O)cc2OC(c2ccc(O)c(O)c2)C1O (stereo not drawn) [(B1)-Taxifolin]
Z Score: 1.321

Oxotremorine sesquifumarate salt
Z Score: 0.8552
Z score [2]: 0.855
Activity [3]: no

C=CCN1CC[C@]23c4c5ccc(O)c4O[C@H]2/C(=N/N=C2\CC[C@@]4(O)[C@H]6Cc7ccc(O)c8c7[C@@]4(CCN6CC=C)[C@H]2O8)CC[C@@]3(O)[C@H]1C5 [Naloxonazine dihydrochloride]
Z Score: −0.6061
Z score [2]: −0.606
Activity [6]: no

CC(=O)N[C@@H](CS)C(=O)O [N-Acetyl-L-Cysteine]
Z Score [5]: −1.621
Z score [7]: −1.621
Activity [8]: no

(−)Amethopterin
Z Score [5]: −8.704
Z score [2]: −8.704
Activity [6]: yes

CN1CCC(=C2c3ccccc3CC(=O)c3sccc32)CC1 [Ketotifen fumarate]
Z Score (LOPAC library screen, 3 μM, MTT, neurosphere cultures): 0.9573
Z score [2]: 0.957
Activity [1]: no

(S)-Propranolol hydrochloride
Z Score [9]: −0.5346
Z score [2]: −0.535
Activity [3]: no

Br.Cc1o[nH]c(=O)c1CC(N)C(=O)O (stereo not drawn) [(B1)-AMPA hydrobromide]
Z Score: −0.4272

Cl.OC1CCCCC1N1CCC(c2ccccc2)CC1 (racemic) [(±)-Vesamicol hydrochloride]
Z score [7]: −1.967
Activity [8]: no

COc1[nH]c2ccc(F)cc2c1C(=O)OCC1CCN(CCNS(C)(=O)=O)CC1.NS(=O)(=O)O [GR 125487 sulfamate salt]
Z Score [9]: −0.1942
Z score [2]: −0.194
Activity [1]: no

NCCNC(=O)Cc1ccc(NC(=O)Cc2ccc(Nc3ncnc4c3ncn4[C@@H]3O[C@H](CO)[C@@H](O)[C@H]3O)cc2)cc1 [Adenosine amine congener]
Z Score [9]: −0.3345
Z score [7]: −0.334
Activity [8]: no

COc1ccc(-n2nc(C(F)(F)F)cc2-c2ccc(Cl)cc2)cc1 [SC-560]
Z Score: 1.113
Z score [2]: 1.113

CC(C)(C)NCC(O)COc1cccc2[nH]c(=O)[nH]c12.Cl (stereo not drawn) [(B1)-CGP-12177A hydrochloride]
Z Score: −1.611

Source: US8058243B2, “Method for treating a brain cancer with ifenprodil” (HSC Research and Development Limited Partnership, priority 2006, dated 2011)
